Assay [1] concerns the target T1, Recombinant STAT6 protein (STAT6(W123-T658)) (Homo sapiens, UniProt P42226).
T1 construct: STAT6(W123-T658)
T1 sequence (P42226 123-658): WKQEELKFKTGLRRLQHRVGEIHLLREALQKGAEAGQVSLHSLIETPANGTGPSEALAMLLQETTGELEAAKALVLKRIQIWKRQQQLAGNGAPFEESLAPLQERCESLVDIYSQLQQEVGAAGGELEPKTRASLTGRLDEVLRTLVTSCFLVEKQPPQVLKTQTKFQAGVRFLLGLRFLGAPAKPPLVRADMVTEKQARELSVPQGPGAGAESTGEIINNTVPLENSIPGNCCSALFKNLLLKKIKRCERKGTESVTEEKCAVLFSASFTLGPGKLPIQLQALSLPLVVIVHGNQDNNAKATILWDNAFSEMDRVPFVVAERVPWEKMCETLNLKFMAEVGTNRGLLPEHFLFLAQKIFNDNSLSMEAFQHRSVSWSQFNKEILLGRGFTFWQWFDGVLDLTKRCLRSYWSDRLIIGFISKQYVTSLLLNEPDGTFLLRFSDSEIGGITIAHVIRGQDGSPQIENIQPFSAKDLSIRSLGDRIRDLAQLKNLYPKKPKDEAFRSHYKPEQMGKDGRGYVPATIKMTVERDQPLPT
Briefly: STAT6 Fluorescence Polarization (FP) Assay. It counts as binding. The note with it: STAT6(W123-T658) 250 nM, probe 5-FAM-ApYKPFQDLI-NH2 2 nM, 45-minute incubation. The procedure, abridged:
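Competitive displacement of a fluorescent phosphotyrosine peptide (2 nM) from recombinant STAT6 W123-T658 (250 nM), 45 min at room temperature in 10 mM HEPES pH 7.4, 50 mM NaCl, 2 mM DTT. mP fitted against log compound for IC50, grouped A (≤300 nM) to D (>30 μM).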

Assay [2] addresses T2, Recombinant STAT3 protein (STAT3(G127-I722)) (Homo sapiens, UniProt P40763).
T2 construct: STAT3(G127-I722)
Put plainly: STAT3 Fluorescence Polarization (FP) Assay. In kind it is binding. The note with it: STAT3(G127-I722) 25 nM, probe 5-FAM-GpYLPQTV-NH2 2 nM, 45-minute incubation. The procedure, abridged: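 Serially diluted compounds (1% DMSO) were mixed with 2 nM fluorescent phosphotyrosine peptide and 25 nM STAT3 construct G127-I722, pH 7.4, incubated 45 min at room temperature. IC50 values from fitted polarization curves are reported as categories A (≤100 nM), B, C, D (>10 μM).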

IC50 data for 15 molecules are collected here from patent publication US20250215030A1, “STAT MODULATORS AND USES THEREOF” (Recludix Pharma, Inc., priority 2022, published 2025).

T2 sequence (P40763 127-722, species assumed): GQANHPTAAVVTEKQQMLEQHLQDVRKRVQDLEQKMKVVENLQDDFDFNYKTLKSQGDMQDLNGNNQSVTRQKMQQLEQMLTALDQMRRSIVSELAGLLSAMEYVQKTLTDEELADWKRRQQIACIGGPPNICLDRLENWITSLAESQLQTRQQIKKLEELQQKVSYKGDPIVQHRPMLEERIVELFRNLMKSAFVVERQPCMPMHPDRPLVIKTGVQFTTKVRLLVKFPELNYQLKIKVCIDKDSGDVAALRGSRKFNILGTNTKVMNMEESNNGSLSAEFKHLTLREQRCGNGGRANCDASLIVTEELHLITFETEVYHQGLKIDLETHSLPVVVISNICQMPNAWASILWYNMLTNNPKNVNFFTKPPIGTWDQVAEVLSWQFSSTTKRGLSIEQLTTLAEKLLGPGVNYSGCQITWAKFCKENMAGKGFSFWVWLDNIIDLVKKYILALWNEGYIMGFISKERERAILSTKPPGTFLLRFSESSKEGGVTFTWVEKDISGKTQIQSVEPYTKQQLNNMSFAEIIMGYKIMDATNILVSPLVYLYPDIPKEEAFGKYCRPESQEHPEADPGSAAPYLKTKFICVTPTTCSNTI

In the case of `O=C(N[C@H]1C[C@H]2C[C@H]2C[C@H]2CC[C@@H](C(=O)N3CC(c4ncccn4)C3)N2C1=O)c1cc2cc(C(F)(F)P(=O)(O)O)ccc2s1` [Compound 80, (difluoro(2-(((3S,6S,7aR,8aS,9aR)-5-oxo-3-(3-(pyrimidin-2-yl)azetidine-1-carbonyl)decahydro-1H-cyclopropa[d]pyrrolo[1,2-a]azocin-6-yl)carbamoyl)benzo[b]thiophen-5-yl)methyl)phosphonic acid], the IC50 in assay [1] was 3000 to 30000 nM; in assay [2], below 100 nM.
Turning to `Cc1nnc(C2CN(C(=O)[C@@H]3CC[C@@H]4C[C@@H]5C[C@@H]5C[C@H](NC(=O)c5cc6cc(C(F)(F)P(=O)(O)O)ccc6s5)C(=O)N43)C2)[nH]1` [Compound 81, (difluoro(2-(((3S,6S,7aR,8aS,9aR)-3-(3-(5-methyl-4H-1,2,4-triazol-3-yl)azetidine-1-carbonyl)-5-oxodecahydro-1H-cyclopropa[d]pyrrolo[1,2-a]azocin-6-yl)carbamoyl)benzo[b]thiophen-5-yl)methyl)phosphonic acid], the IC50 is 300 to 3000 nM in assay [1] and below 100 nM in assay [2].
`Cc1nnc(C2(C)CN(C(=O)[C@@H]3CC[C@@H]4C[C@@H]5C[C@@H]5C[C@H](NC(=O)c5cc6cc(C(F)(F)P(=O)(O)O)ccc6s5)C(=O)N43)C2)o1` [Compound 82, (difluoro(2-(((3S,6S,7aR,8aS,9aR)-3-(3-methyl-3-(5-methyl-1,3,4-oxadiazol-2-yl)azetidine-1-carbonyl)-5-oxodecahydro-1H-cyclopropa[d]pyrrolo[1,2-a]azocin-6-yl)carbamoyl)benzo[b]thiophen-5-yl)methyl)phosphonic acid]: the concentration for half-maximal inhibition (IC50) in assay [1] is 300 to 3000 nM; in assay [2], below 100 nM.
The like results for `CS(=N)(=O)CC1CN(C(=O)[C@@H]2CC[C@@H]3C[C@@H]4C[C@@H]4C[C@H](NC(=O)c4cc5cc(C(F)(F)P(=O)(O)O)ccc5s4)C(=O)N32)C1` (stereo partly drawn) [Compound 83, (difluoro(2-(((3S,6S,7aR,8aS,9aR)-3-(3-((S-methysulfonimidoyl)methyl)azetidine-1-carbonyl)-5-oxodecahydro-1H-cyclopropa[d]pyrrolo[1,2-a]azocin-6-yl)carbamoyl)benzo[b]thiophen-5-yl)methyl)phosphonic acid] were, in that order, 3000 to 30000 nM and below 100 nM.
On to `COCC1(c2ccccc2)CN(C(=O)[C@@H]2CC[C@@H]3C[C@@H]4C[C@@H]4C[C@H](NC(=O)c4cc5cc(C(F)(F)P(=O)(O)O)ccc5s4)C(=O)N32)C1` [Compound 84, (difluoro(2-(((3S,6S,7aR,8aS,9aR)-3-(3-(methoxymethyl)-3-phenylazetidine-1-carbonyl)-5-oxodecahydro-1H-cyclopropa[d]pyrrolo[1,2-a]azocin-6-yl)carbamoyl)benzo[b]thiophen-5-yl)methyl)phosphonic acid], for which the IC50 in assay [1] was 3000 to 30000 nM; in assay [2], below 100 nM.
The like results for `Cc1ccccc1C1CN(C(=O)[C@@H]2CC[C@@H]3C[C@H]4C[C@H]4C[C@H](NC(=O)c4cc5cc(C(F)(F)P(=O)(O)O)ccc5s4)C(=O)N32)C1` [Compound 85, (difluoro(2-(((3S,6S,7aS,8aR,9aR)-5-oxo-3-(3-(o-tolyl)azetidine-1-carbonyl)decahydro-1H-cyclopropa[d]pyrrolo[1,2-a]azocin-6-yl)carbamoyl)benzo[b]thiophen-5-yl)methyl)phosphonic acid] were, in that order, 300 to 3000 nM and below 100 nM.
The like results for `O=C(N[C@H]1C[C@@H]2C[C@@H]2C[C@H]2CC[C@@H](C(=O)N3CC(C(=O)N4CC(c5ccccn5)C4)C3)N2C1=O)c1cc2cc(C(F)(F)P(=O)(O)O)ccc2s1` [Compound 86, (difluoro(2-(((3S,6S,7aS,8aR,9aR)-5-oxo-3-(3-(3-(pyridin-2-yl)azetidine-1-carbonyl)azetidine-1-carbonyl)decahydro-1H-cyclopropa[d]pyrrolo[1,2-a]azocin-6-yl)carbamoyl)benzo[b]thiophen-5-yl)methyl)phosphonic acid] were, in that order, 3000 to 30000 nM and below 100 nM.
On to `O=C(N[C@H]1C[C@@H]2C[C@@H]2C[C@H]2CC[C@@H](C(=O)N3CC(O)(c4ccccn4)C3)N2C1=O)c1cc2cc(C(F)(F)P(=O)(O)O)ccc2s1` [Compound 87, (difluoro(2-(((3S,6S,7aS,8aR,9aR)-3-(3-hydroxy-3-(pyridin-2-yl)azetidine-1-carbonyl)-5-oxodecahydro-1H-cyclopropa[d]pyrrolo[1,2-a]azocin-6-yl)carbamoyl)benzo[b]thiophen-5-yl)methyl)phosphonic acid], for which the 50% inhibitory concentration (IC50) is 3000 to 30000 nM in assay [1] and below 100 nM in assay [2].
The like results for `COc1ccc(C2CCN(C(=O)[C@@H]3CC[C@@H]4C[C@H]5C[C@H]5C[C@H](NC(=O)c5cc6cc(C(F)(F)P(=O)(O)O)ccc6s5)C(=O)N43)C2)cn1` (stereo partly drawn) [Compound 88, (difluoro(2-(((3S,6S,7aS,8aR,9aR)-3-(3-(6-methoxypyridin-3-yl)pyrrolidine-1-carbonyl)-5-oxodecahydro-1H-cyclopropa[d]pyrrolo[1,2-a]azocin-6-yl)carbamoyl)benzo[b]thiophen-5-yl)methyl)phosphonic acid] were, in that order, 300 to 3000 nM and below 100 nM.
In the case of `N#CC1(c2ccccn2)CN(C(=O)[C@@H]2CC[C@@H]3C[C@H]4C[C@H]4C[C@H](NC(=O)c4cc5cc(C(F)(F)P(=O)(O)O)ccc5s4)C(=O)N32)C1` [Compound 89, ((2-(((3S,6S,7aS,8aR,9aR)-3-(3-cyano-3-(pyridin-2-yl)azetidine-1-carbonyl)-5-oxodecahydro-1H-cyclopropa[d]pyrrolo[1,2-a]azocin-6-yl)carbamoyl)benzo[b]thiophen-5-yl)difluoromethyl)phosphonic acid], the values for the IC50 in assay [1] and in assay [2] were 300 to 3000 nM and below 100 nM, respectively.
The like results for `O=C(N[C@H]1C[C@@H]2C[C@@H]2C[C@H]2CC[C@@H](C(=O)N3CC4(CC(=O)c5nccn54)C3)N2C1=O)c1cc2cc(C(F)(F)P(=O)(O)O)ccc2s1` [Compound 90, (difluoro(2-(((3S,6S,7aS,8aR,9aR)-5-oxo-3-(7′-oxo-6′,7′-dihydrospiro[azetidine-3,5′-pyrrolo[1,2-a]imidazole]-1-carbonyl)decahydro-1H-cyclopropa[d]pyrrolo[1,2-a]azocin-6-yl)carbamoyl)benzo[b]thiophen-5-yl)methyl)phosphonic acid] were, in that order, 300 to 3000 nM and below 100 nM.
For `O=C(N[C@H]1C[C@@H]2C[C@@H]2C[C@H]2CC[C@@H](C(=O)N3CC(N4CCOCC4)C3)N2C1=O)c1cc2cc(C(F)(F)P(=O)(O)O)ccc2s1` [Compound 91, (difluoro(2-(((3S,6S,7aS,8aR,9aR)-3-(3-morpholinoazetidine-1-carbonyl)-5-oxodecahydro-1H-cyclopropa[d]pyrrolo[1,2-a]azocin-6-yl)carbamoyl)benzo[b]thiophen-5-yl)methyl)phosphonic acid] the same measures were 3000 to 30000 nM and 100 to 1000 nM.
Consider `CC(=O)N1CCC2(C1)CN(C(=O)[C@@H]1CC[C@@H]3C[C@H]4C[C@H]4C[C@H](NC(=O)c4cc5cc(C(F)(F)P(=O)(O)O)ccc5s4)C(=O)N31)C2` [Compound 92, ((2-(((35,6S,7aS,8aR,9aR)-3-(6-acetyl-2,6-diazaspiro[3.4]octane-2-carbonyl)-5-oxodecahydro-1H-cyclopropa[d]pyrrolo[1,2-a]azocin-6-yl)carbamoyl)benzo[b]thiophen-5-yl)difluoromethyl)phosphonic acid], for which the IC50 in assay [1] fell in the range of 3000 to 30000 nM; in assay [2], 100 to 1000 nM.
As for `CC1(C(=O)N2CCOCC2)CN(C(=O)[C@@H]2CC[C@@H]3C[C@H]4C[C@H]4C[C@H](NC(=O)c4cc5cc(C(F)(F)P(=O)(O)O)ccc5s4)C(=O)N32)C1` [Compound 93, (difluoro(2-(((3S,6S,7aS,8aR,9aR)-3-(3-methyl-3-(morpholine-4-carbonyl)azetidine-1-carbonyl)-5-oxodecahydro-1H-cyclopropa[d]pyrrolo[1,2-a]azocin-6-yl)carbamoyl)benzo[b]thiophen-5-yl)methyl)phosphonic acid], the IC50 in assay [1] lay within 3000 to 30000 nM; in assay [2] it was 100 to 1000 nM.
For `O=C(N[C@H]1C[C@@H]2C[C@@H]2C[C@H]2CC[C@@H](C(=O)N3CC(n4ccnc4)C3)N2C1=O)c1cc2cc(C(F)(F)P(=O)(O)O)ccc2s1` [Compound 94] the same measures were 3000 to 30000 nM and below 100 nM.
